Experiments:
[1] = tested on: synovial cells (RASC) from rheumatoid arthritis (RA) patients; experiment: Synovial cell proliferation inhibition (MTT method), RASC; assay type: cell-based, human; settings: MTT on days 4, 8 and 12, HA/Zn and Na-HA 10-300 μg/ml, Zn at 1/10 of these, vs non-drug addition group
Protocol: (§1) The effects of the complex of hyaluronic acid and zinc (HA/Zn) of the present invention, and the effects of sodium hyaluronate (Na-HA) and zinc (Zn) as comparison controls were tested on synovial cells (RASC) from rheumatoid arthritis (RA) patients, synovial cells (OASC) from osteoarthritis (OA) patients, and synovial cells (TASC) from traumatic arthritis (TA) patients.
(§2) The test substances used consisted of HA/Zn (Lot No. A65242, 1% solution, Gedeon-Richter, Ltd.), sodium hyaluronate (Na-HA, Lot No. KK4001, Q.P. Corp.), and zinc chloride (Zn, Lot No. ESH1413, Wako Pure Chemical Ind., Ltd.). Quantitative values of the contents of hyaluronic acid and zinc contained in the above-mentioned HA/Zn solution (specific gravity; d^2020=1.0134) were determined in advance. Since the amount of hyaluronic acid was 99% (105.0% when calculated as sodium hyaluronate) and the amount of zinc was 1.07 mg/ml when the above-mentioned 1% is assigned a value of 100, the weight ratio of hyaluronic acid to zinc in said HA/Zn was considered to be 10:1 (Na-HA:Zn). The test substances were tested at concentrations of 10 μg/ml, 30 μg/ml, 100 μg/ml, 150 μg/ml, 200 μg/ml, 250 μg/ml and 300 μg/ml for HA/Zn, the same concentrations as HA/Zn for Na-HA, and at 1/10 the concentrations of HA/Zn for Zn.
(§3) Synovial membrane tissue was sampled from the knee joint of rheumatoid arthritis (RA) patients (5 cases, 65.6±10.6 years old) and osteoarthritis (OA) patients (6 cases, 73.4±8.9 years old) during artificial joint replacement surgery, and from the knee joint of traumatic arthritis (TA) patients (6 cases, 25.6±6.7 years old) during arthroscopic surgery. […]
(§4) The synovial cells (SC) were inoculated into a microplate (96 wells, Iwaki) at a concentration of 3.55×10^3 cells/0.1 ml/well (1×10^4 cells/cm^2), and pre-cultured for 2 days at 37° C. in a vapor phase consisting of 5% CO2 and 95% air. […] The results were expressed with the optical absorbance that indicated a positive correlation with the number of cells. […]

[2] = tested on: synovial cells (TASC) from traumatic arthritis (TA) patients; experiment: Synovial cell proliferation inhibition (MTT method), TASC; assay type: cell-based, human; settings: MTT on days 4, 8 and 12, HA/Zn and Na-HA 10-300 μg/ml, Zn at 1/10 of these, vs non-drug addition group
Protocol: as §1, §2, §3, §4

[3] = tested on: synovial cells (OASC) from osteoarthritis (OA) patients; experiment: Synovial cell proliferation inhibition (MTT method), OASC; assay type: cell-based, human; settings: MTT on days 4, 8 and 12, HA/Zn and Na-HA 10-300 μg/ml, Zn at 1/10 of these, vs non-drug addition group
Protocol: as §1, §2, §3, §4

[4] = tested on: matrix metalloproteinase MMP-9; experiment: Suppression of MMP-9 in synovial cell culture supernatant (EIA); assay type: cell-based, human; settings: for production of MMP-9 relative to control (non-drug addition = 100%): culture supernatant day 8, HA/Zn and Na-HA 100 μg/ml, Zn 10 μg/ml, divided by MTT absorbance
Protocol: Synovial cells were inoculated into culture dishes (diameter: 35 mm, Iwaki) to a concentration of 10×10^4 cells/2 ml/dish (1×10^4 cells/cm^2), and pre-cultured for 2 days at 37° C. in a vapor phase consisting of 5% CO2 and 95% air. Later, the media were replaced with media containing each drug, and the culture supernatants were sampled on day 8 of culturing under the same conditions followed by storage at −80° C. until measurement. The added concentrations of HA/Zn and Na-HA were 100 μg/ml (final concentration), while the concentration of Zn was 10 μg/ml (final concentration). The amount of matrix metalloproteinase MMP-9 in the supernatant was measured using EIA (Enzyme Immunoassay). In order to examine the results calculated as concentration in the supernatant per cell, the results were converted to values divided by the optical absorbance value of synovial cells by MTT at that time. In addition, this value was further expressed as a relative value to the control of the individual value of each drug addition group while assigning the control (non-drug addition group) a value of 100%.

[5] = Systemic toxicity after subcutaneous administration, rats; assay type: in vivo; settings: physically allowed maximum dose 200 mg/kg
Protocol: (§5) Administration methods normally performed for pharmaceuticals can be used for the hyaluronic acid/zinc complex of the present invention. Namely, the above-mentioned complex can be administered orally or parenterally, and administration by injection is particularly preferable. The effective dose of the hyaluronic acid/zinc complex of the present invention is 0.01 mg to 1 mg, and preferably 0.03 mg to 0.5 mg per joint per administration per person. […] The agent for treatment of arthritic disease and matrix metalloproteinase MMP-9 suppresser of the present invention can contain 0.001% to 1%, and preferably 0.01% to 0.5%, of the hyaluronic acid/zinc complex of the present invention with a routinely used pharmaceutical carrier. Examples of routinely used pharmaceutical carriers include bases typically used in therapeutic applications such as chitosan, starch, pectin, HPMC and sodium alginate, binders such as tragacanth gum, gum arabic, cornstarch and gelatin, vehicles such as crystalline cellulose and mannitol, disintegrating agents such as cornstarch, α-starch and alginic acid, lubricants such as magnesium stearate, sweeteners such as sucrose, lactose and saccharin, flavorings such as peppermint, mint and cherry, and antiseptics.

[6] = Systemic toxicity after subcutaneous administration, mice; assay type: in vivo; settings: physically allowed maximum dose 200 mg/kg
Protocol: as §5

Compound	proliferation of synovial cells (inhibition) [1]	proliferation of synovial cells (inhibition) [2]	proliferation of synovial cells (inhibition) [3]	production of MMP-9 relative to control (non-drug addition = 100%) [4] [%]	symptoms of systemic toxicity [5]	symptoms of systemic toxicity [6]	concentration at which MMP-9 is suppressed ([4]; synovial cells originating in rheumatoid arthritis, in vitro) [µg/mL]
[Cl-].[Cl-].[Zn+2] [Zn, zinc chloride]	significant inhibition	significant inhibition	significant inhibition	50	–	–	–
complex of hyaluronic acid and zinc [HA/Zn]	significantly inhibited dependent on the amount added	significantly inhibited dependent on the amount added	significantly inhibited dependent on the amount added	0	not observed to cause symptoms of systemic toxicity	not observed to cause symptoms of systemic toxicity	≤ 100
sodium hyaluronate [Na-HA]	not significantly inhibited	not significantly inhibited	not significantly inhibited	100	–	–	–

From patent US6608043B1, “Remedies for joint diseases” (Takata Seiyaku Co., Ltd., priority 1999, dated 2003)
